Experiments:
sunburn = assay: Ultraviolet rays prevention effect test on a beach (lotion and cream samples); type: in vivo, human
Experimental: The prevention effect test was carried out on a beach during the summer. Equal amounts of sample were applied to the right and left sides of the backs of test subjects. After direct sunlight exposure, the degree of sunburn was evaluated in accordance with the following criteria. Each group consisted of 20 subjects. (Criterion) Remarkable effect: None or almost no sunburn symptom was found. Positive effect: Slight sunburn symptom was found. Negative effect: Strong sunburn symptom was found. (Evaluation) A: Subject of remarkable effect or positive effect is 80% or more. B: Subject of remarkable effect or positive effect is 50% or more and less than 80%. C: Subject of remarkable effect or positive effect is 30% or more and less than 50%. D: Subject of remarkable effect or positive effect is less than 30% (ii) Preparation of sample (A) Lotion [table] Each of water phase and alcohol phase was prepared. Then each was mixed. (B) Cream [table] The propylene glycol was added to ion-exchanged water and was dissolved, which was kept at 70° C. by heating (Water phase). The other components were mixed and melted by heating and was kept at 70° C. (Oil phase). The oil phase was added to the water phase, and an emulsion was formed.. After it was homogeneously emulsified with a homogenixer, it was cooled at 30° C. with stirring well.

skin (face) = assay: Skin irritation test: continuous use test; type: in vivo, human; conditions: 10 wt % ultraviolet absorbent, twice a day for 4 weeks
Experimental: Sample (10 wt % of ultraviolet absorbent) is the same as test example 2. The continuous use test by the healthy subjects was carried out with one group of twenty subjects. A proper amount of each sample was applied to the face twice a day for 4 weeks. The evaluation standard of Table 5 was judged. [table] The calculated average score was evaluated by the next standard. A: Average score is 0. B: Average score is over 0 and less than 1. C: Average score is 1 or more, and less than 2. D: Average score is 2 or more.

[1] = Photostability test (aqueous solution exposed to sunlight); type: physicochemical; conditions: sunlight 80 MJ/m^2, two weeks
Experimental: After an aqueous solution of the pyridazine derivative of the present invention was exposed to sunlight (Amount of solar radiation exposure 80 MJ/m^2) for two weeks, residual yield and change of appearance were checked. UV absorption spectrum (Solvent: water, concentration: 10 ppm, Light path: 1 cm) was measured by spectrophotometer. Area value was calculated by integrating over the range of 290 nm to 400 nm of the ultraviolet rays absorption spectrum. The area value was compared with the value before sunlight exposure.
The residual yield and change of area value of ultraviolet rays absorption spectrum were evaluated by the following standard.
A: 95% or more of area value before sunlight exposure.
B: 90% or more and less than 95% of area value before sunlight exposure.
C: 70% or more and less than 90% of area value before sunlight exposure.
D: less than 70% of area value before sunlight exposure.

[2] = Perfume stabilization effect (sequestering agent combination); set-up: key to Sunlight exposure (80 MJ) Smell evaluation: A: No change; B: No almost change; C: Yes change; conditions: for smell change: with a sequestering agent, compared with compositions without; for Sunlight exposure (80 MJ) Smell evaluation: amounts wt %
Experimental: Next, for combinations with sequestering agent, photostabilization effect for each perfume was studied by the following evaluation formulation.
Each test sample was prepared. Smell change of samples exposed to sunlight (80 MJ) was observed (judgement by perfumier).

## Oc1nncc(N2CCOCC2)c1N1CCOCC1 [4,5-Dimorpholino-3-hydroxypyridazine]
sunburn; Cream, ultraviolet absorbent 0.0005 wt %
  UV prevent effect: C (Subject of remarkable effect or positive effect is 30% or more and less than 50%.)
sunburn; Cream, ultraviolet absorbent 0.001 wt %
  UV prevent effect: B (Subject of remarkable effect or positive effect is 50% or more and less than 80%.)
sunburn; Cream, ultraviolet absorbent 0.1 wt %
  UV prevent effect: A (Subject of remarkable effect or positive effect is 80% or more.)
sunburn; Cream, ultraviolet absorbent 1 wt %
  UV prevent effect: A (Subject of remarkable effect or positive effect is 80% or more.)
sunburn; Cream, ultraviolet absorbent 5 wt %
  UV prevent effect: A (Subject of remarkable effect or positive effect is 80% or more.)
sunburn; Cream, ultraviolet absorbent 10 wt %
  UV prevent effect: A (Subject of remarkable effect or positive effect is 80% or more.)
sunburn; Cream, ultraviolet absorbent 20 wt %
  UV prevent effect: A (Subject of remarkable effect or positive effect is 80% or more.)
sunburn; Lotion, ultraviolet absorbent 0.0005 wt %
  UV prevent effect: C (Subject of remarkable effect or positive effect is 30% or more and less than 50%.)
sunburn; Lotion, ultraviolet absorbent 0.001 wt %
  UV prevent effect: B (Subject of remarkable effect or positive effect is 50% or more and less than 80%.)
sunburn; Lotion, ultraviolet absorbent 0.01 wt %
  UV prevent effect: A (Subject of remarkable effect or positive effect is 80% or more.)
sunburn; Lotion, ultraviolet absorbent 1 wt %
  UV prevent effect: A (Subject of remarkable effect or positive effect is 80% or more.)
sunburn; Lotion, ultraviolet absorbent 5 wt %
  UV prevent effect: A (Subject of remarkable effect or positive effect is 80% or more.)
sunburn; Lotion, ultraviolet absorbent 10 wt %
  UV prevent effect: A (Subject of remarkable effect or positive effect is 80% or more.)
sunburn; Lotion, ultraviolet absorbent 20 wt %
  UV prevent effect: A (Subject of remarkable effect or positive effect is 80% or more.)
Skin (face); Cream
  Judgment (continuous use test, average skin reaction score): A (Average score is 0.)
Skin (face); Lotion
  Judgment (continuous use test, average skin reaction score): A (Average score is 0.)
[1]
  Residual yield: A (95% or more of area value before sunlight exposure.)
[1]; 290 nm to 400 nm
  Change of area value of UV absorption spectrum: A (95% or more of area value before sunlight exposure.)
[2]; base perfume, Table 29
  smell change: very small
[2]; natural perfume Bergamot oil 0.03, photostabilizer 0.05 + Trisodium ethylenediamine tetraacetate 0.03
  Sunlight exposure (80 MJ) Smell evaluation: A
[2]; natural perfume Bergamot oil 0.03, photostabilizer 0.05, no sequestering agent
  Sunlight exposure (80 MJ) Smell evaluation: B
[2]; natural perfume Jasmine oil 0.03, photostabilizer 0.02 + Sodium metaphosphate 0.03
  Sunlight exposure (80 MJ) Smell evaluation: A
[2]; natural perfume Jasmine oil 0.03, photostabilizer 0.02, no sequestering agent
  Sunlight exposure (80 MJ) Smell evaluation: B
[2]; natural perfume Lavender oil 0.03, photostabilizer 0.02 + Trisodium hydroxyethyl ethylenediamine triacetate 0.03
  Sunlight exposure (80 MJ) Smell evaluation: A
[2]; natural perfume Lavender oil 0.03, photostabilizer 0.02, no sequestering agent
  Sunlight exposure (80 MJ) Smell evaluation: B
[2]; natural perfume Musk oil 0.03, photostabilizer 0.1 + Sodium metaphosphate 0.03
  Sunlight exposure (80 MJ) Smell evaluation: A
[2]; natural perfume Musk oil 0.03, photostabilizer 0.1, no sequestering agent
  Sunlight exposure (80 MJ) Smell evaluation: B
[2]; natural perfume Orange oil 0.03, photostabilizer 0.05 + Sodium metaphosphate 0.03
  Sunlight exposure (80 MJ) Smell evaluation: A
[2]; natural perfume Orange oil 0.03, photostabilizer 0.05, no sequestering agent
  Sunlight exposure (80 MJ) Smell evaluation: B
[2]; natural perfume Peppermint oil 0.03, photostabilizer 0.01 + Trisodium ethylenediamine triacetate 0.03
  Sunlight exposure (80 MJ) Smell evaluation: A
[2]; natural perfume Peppermint oil 0.03, photostabilizer 0.01, no sequestering agent
  Sunlight exposure (80 MJ) Smell evaluation: B
[2]; natural perfume Rose oil 0.03, photostabilizer 0.02 + Trisodium ethylenediamine tetraacetate 0.03
  Sunlight exposure (80 MJ) Smell evaluation: A
[2]; natural perfume Rose oil 0.03, photostabilizer 0.02, no sequestering agent
  Sunlight exposure (80 MJ) Smell evaluation: B
[2]; natural perfume Ylang ylang oil 0.03, photostabilizer 0.02 + Trisodium hydroxyethyl ethylenediamine triacetate 0.03
  Sunlight exposure (80 MJ) Smell evaluation: A
[2]; natural perfume Ylang ylang oil 0.03, photostabilizer 0.02, no sequestering agent
  Sunlight exposure (80 MJ) Smell evaluation: B
[2]; natural perfume, Table 27
  smell change: very small
[2]; perfume Aldehyde 0.03, photostabilizer 0.05 + Trisodium hydroxyethyl ethylenediamine triacetate 0.03
  Sunlight exposure (80 MJ) Smell evaluation: A
[2]; perfume Aldehyde 0.03, photostabilizer 0.05, no sequestering agent
  Sunlight exposure (80 MJ) Smell evaluation: B
[2]; perfume Animal 0.03, photostabilizer 0.1 + Trisodium ethylenediamine tetraacetate 0.03
  Sunlight exposure (80 MJ) Smell evaluation: A
[2]; perfume Animal 0.03, photostabilizer 0.1, no sequestering agent
  Sunlight exposure (80 MJ) Smell evaluation: B
[2]; perfume Fruity 0.03, photostabilizer 0.03 + Sodium metaphosphate 0.03
  Sunlight exposure (80 MJ) Smell evaluation: A
[2]; perfume Fruity 0.03, photostabilizer 0.03, no sequestering agent
  Sunlight exposure (80 MJ) Smell evaluation: B
[2]; perfume Green 0.03, photostabilizer 0.01 + Trisodium hydroxyethyl ethylenediamine triacetate 0.03
  Sunlight exposure (80 MJ) Smell evaluation: A
[2]; perfume Green 0.03, photostabilizer 0.01, no sequestering agent
  Sunlight exposure (80 MJ) Smell evaluation: B
[2]; perfume Jasmine 0.03, photostabilizer 0.02 + Trisodium ethylenediamine tetraacetate 0.03
  Sunlight exposure (80 MJ) Smell evaluation: A
[2]; perfume Jasmine 0.03, photostabilizer 0.02, no sequestering agent
  Sunlight exposure (80 MJ) Smell evaluation: B
[2]; perfume Muguet 0.03, photostabilizer 0.02 + Sodium metaphosphate 0.03
  Sunlight exposure (80 MJ) Smell evaluation: A
[2]; perfume Muguet 0.03, photostabilizer 0.02, no sequestering agent
  Sunlight exposure (80 MJ) Smell evaluation: B
[2]; perfume Oriental 0.03, photostabilizer 0.01 + Trisodium ethylenediamine tetraacetate 0.03
  Sunlight exposure (80 MJ) Smell evaluation: A
[2]; perfume Oriental 0.03, photostabilizer 0.01, no sequestering agent
  Sunlight exposure (80 MJ) Smell evaluation: B
[2]; perfume Rose 0.03, photostabilizer 0.02 + Trisodium hydroxyethyl ethylenediamine triacetate 0.03
  Sunlight exposure (80 MJ) Smell evaluation: A
[2]; perfume Rose 0.03, photostabilizer 0.02, no sequestering agent
  Sunlight exposure (80 MJ) Smell evaluation: B
[2]; synthetic perfume Benzyl benzoate 0.03, photostabilizer 0.02 + Trisodium hydroxyethyl ethylenediamine triacetate 0.03
  Sunlight exposure (80 MJ) Smell evaluation: A
[2]; synthetic perfume Benzyl benzoate 0.03, photostabilizer 0.02, no sequestering agent
  Sunlight exposure (80 MJ) Smell evaluation: B
[2]; synthetic perfume Citral 0.03, photostabilizer 0.01 + Trisodium hydroxyethyl ethylenediamine triacetate 0.03
  Sunlight exposure (80 MJ) Smell evaluation: A
[2]; synthetic perfume Citral 0.03, photostabilizer 0.01, no sequestering agent
  Sunlight exposure (80 MJ) Smell evaluation: B
[2]; synthetic perfume Lilial 0.03, photostabilizer 0.1 + Sodium metaphosphate 0.03
  Sunlight exposure (80 MJ) Smell evaluation: A
[2]; synthetic perfume Lilial 0.03, photostabilizer 0.1, no sequestering agent
  Sunlight exposure (80 MJ) Smell evaluation: B
[2]; synthetic perfume Limonene 0.03, photostabilizer 0.02 + Trisodium hydroxyethyl ethylenediamine triacetate 0.03
  Sunlight exposure (80 MJ) Smell evaluation: A
[2]; synthetic perfume Limonene 0.03, photostabilizer 0.02, no sequestering agent
  Sunlight exposure (80 MJ) Smell evaluation: B
[2]; synthetic perfume Oranthiol 0.03, photostabilizer 0.05 + Sodium metaphosphate 0.03
  Sunlight exposure (80 MJ) Smell evaluation: A
[2]; synthetic perfume Oranthiol 0.03, photostabilizer 0.05, no sequestering agent
  Sunlight exposure (80 MJ) Smell evaluation: B
[2]; synthetic perfume Rose oxide 0.03, photostabilizer 0.05 + Trisodium ethylenediamine tetraacetate 0.03
  Sunlight exposure (80 MJ) Smell evaluation: A
[2]; synthetic perfume Rose oxide 0.03, photostabilizer 0.05, no sequestering agent
  Sunlight exposure (80 MJ) Smell evaluation: B
[2]; synthetic perfume cis-3-Hexenol 0.03, photostabilizer 0.02 + Trisodium ethylenediamine tetraacetate 0.03
  Sunlight exposure (80 MJ) Smell evaluation: A
[2]; synthetic perfume cis-3-Hexenol 0.03, photostabilizer 0.02, no sequestering agent
  Sunlight exposure (80 MJ) Smell evaluation: B
[2]; synthetic perfume β-ionone 0.03, photostabilizer 0.01 + Trisodium ethylenediamine tetraacetate 0.03
  Sunlight exposure (80 MJ) Smell evaluation: A
[2]; synthetic perfume β-ionone 0.03, photostabilizer 0.01, no sequestering agent
  Sunlight exposure (80 MJ) Smell evaluation: B
[2]; synthetic perfume, Table 28
  smell change: very small
other
  melting point: 256 to 257 °C (dec.)

Source: patent publication US6395896B2, “Pyridazine derivatives, manufacturing method and related composition” (Shiseido Co., Ltd., priority 1999, dated 2002)
